In paper PMC11212140, “Molecular Bidents with Two Electrophilic Warheads as a New Pharmacological Modality” (ACS Central Science, 2024):

How the values were obtained:
Test in all cases: KiNativ profiling in H3255 cells
Type in all cases: cell-based, human
NDR1, NDR2 = conditions: 2.5 µM; Activation Loop; LSDFGLCTGLKK
Experimental: (§1) H3255 cells were plated with 6.5x10^6 per condition in fresh media in 15 cm plates and treated the 80% confluency for 2 hours with DMSO or 2.5 μM of ZNL-0056. To harvest cells, plates were washed 3 times with cold PBS, then collected by scraping into 4 mL of cold PBS containing protease and phosphatase inhibitors. Cells were pelleted by centrifugation at 1350 g at 4 ℃ for 5 minutes and immediately frozen in liquid nitrogen. The frozen samples were sent to ActivX Biosciences (La Jolla, CA) for the remainder of the KiNativ profiling experiment4. […]

TNK1 = system: T1, TNK1; conditions: 2.5 µM; Lys1; SVPVAVKSLR
T1 construct: purchased ActivX Biosciences (KiNativ)
Experimental: as §1

p38b = system: T2, p38b; conditions: 2.5 µM; Other; QELNKTVWEVPQR
T2 construct: purchased ActivX Biosciences (KiNativ)
Experimental: as §1

ULK1 = system: T3, ULK1; conditions: 2.5 µM; Lys2; DLKPQNILLSNPAGR
T3 construct: purchased ActivX Biosciences (KiNativ)
Experimental: as §1

IRAK1 = system: T4, IRAK1; conditions: 2.5 µM; Lys2; AIQFLHQDSPSLIHGDIKSSNVLLDER
T4 construct: purchased ActivX Biosciences (KiNativ)
Experimental: as §1

RSK2 domain2 = system: T5, RSK2 domain2; conditions: 2.5 µM; Lys2; DLKPSNILYVDESGNPESIR
T5 construct: RSK2 domain2; purchased ActivX Biosciences (KiNativ)
Experimental: as §1

NEK7 = system: T6, NEK7; conditions: 2.5 µM; Lys1; AACLLDGVPVALKK
T6 construct: purchased ActivX Biosciences (KiNativ)
Experimental: as §1

Erk2 = system: T7, Erk2; conditions: 2.5 µM; Lys2; DLKPSNLLLNTTCDLK
T7 construct: purchased ActivX Biosciences (KiNativ)
Experimental: as §1

CDK4 = system: T8, CDK4; conditions: 2.5 µM; Lys2; DLKPENILVTSGGTVK
T8 construct: purchased ActivX Biosciences (KiNativ)
Experimental: as §1

HRI = system: T9, HRI; conditions: 2.5 µM; Activation Loop; IGDFGLACTDILQKNTDWTNR
T9 construct: purchased ActivX Biosciences (KiNativ)
Experimental: as §1

PEK = system: T10, PEK; conditions: 2.5 µM; Lys2; DLKPSNIFFTMDDVVK
T10 construct: purchased ActivX Biosciences (KiNativ)
Experimental: as §1

SRPK2 = system: T11, SRPK2; conditions: 2.5 µM; Lys2; IIHTDIKPENILMCVDDAYVR
T11 construct: purchased ActivX Biosciences (KiNativ)
Experimental: as §1

MST1 = system: T12, MST1; conditions: 2.5 µM; Lys1; ETGQIVAIKQVPVESDLQEIIK
T12 construct: purchased ActivX Biosciences (KiNativ)
Experimental: as §1

MELK = system: T13, MELK; conditions: 2.5 µM; Lys2; DLKPENLLFDEYHK
T13 construct: purchased ActivX Biosciences (KiNativ)
Experimental: as §1

FYN, SRC, YES = conditions: 2.5 µM; Activation Loop; QGAKFPIKWTAPEAALYGR
Experimental: as §1

Wee1 = system: T14, Wee1; conditions: 2.5 µM; Lys2; YIHSMSLVHMDIKPSNIFISR
T14 construct: purchased ActivX Biosciences (KiNativ)
Experimental: as §1

RIPK2 = system: T15, RIPK2; conditions: 2.5 µM; Lys1; VQVAVKHLHIHTPLLDSER
T15 construct: purchased ActivX Biosciences (KiNativ)
Experimental: as §1

NDR1 = system: T16, NDR1; conditions: 2.5 µM
T16 construct: purchased ActivX Biosciences (KiNativ)
Experimental: as §1

HER3/ErbB3 = system: T17, HER3/ErbB3; conditions: 2.5 µM
T17 construct: purchased ActivX Biosciences (KiNativ)
Experimental: as §1

LYN = system: T18, LYN; conditions: 2.5 µM
T18 construct: purchased ActivX Biosciences (KiNativ)
Experimental: as §1

MER, TYRO3 = conditions: 2.5 µM; Activation Loop; KIYSGDYYR
Experimental: as §1

MAP2K6 = system: T19, MAP2K6; conditions: 2.5 µM
T19 construct: purchased ActivX Biosciences (KiNativ)
Experimental: as §1

EphA1 = system: T20, EphA1; conditions: 2.5 µM; Activation Loop; LLDDFDGTYETQGGKIPIR
T20 construct: purchased ActivX Biosciences (KiNativ)
Experimental: as §1

CaMK2g = system: T21, CaMK2g; conditions: 2.5 µM; Lys1; TSTQEYAAKIINTK
T21 construct: purchased ActivX Biosciences (KiNativ)
Experimental: as §1

IKKe, TBK1 = conditions: 2.5 µM; Lys2; DIKPGNIMR
Experimental: as §1

GSK3B = system: T22, GSK3B; conditions: 2.5 µM; Lys2; DIKPQNLLLDPDTAVLK
T22 construct: purchased ActivX Biosciences (KiNativ)
Experimental: as §1

MAP3K1 = system: T23, MAP3K1; conditions: 2.5 µM; Lys2; DVKGANLLIDSTGQR
T23 construct: purchased ActivX Biosciences (KiNativ)
Experimental: as §1

MAP2K1, MAP2K2 = conditions: 2.5 µM
Experimental: as §1

SIK = system: T24, SIK; conditions: 2.5 µM; Lys1; TQVAIKIIDK
T24 construct: purchased ActivX Biosciences (KiNativ)
Experimental: as §1

LATS1 = system: T25, LATS1; conditions: 2.5 µM
T25 construct: purchased ActivX Biosciences (KiNativ)
Experimental: as §1

RON = system: T26, RON; conditions: 2.5 µM; Lys1; IQCAIKSLSR
T26 construct: purchased ActivX Biosciences (KiNativ)
Experimental: as §1

MAPKAPK2, MAPKAPK3 = conditions: 2.5 µM; Lys2; DVKPENLLYTSK
Experimental: as §1

FRAP = system: T27, FRAP; conditions: 2.5 µM; ATP; IQSIAPSLQVITSKQRPR
T27 construct: purchased ActivX Biosciences (KiNativ)
Experimental: as §1

[1] = Activation Loop, SPSQVQVADFGVADLLPPDDKQLLYSEAKTPIK
[2] = Activation Loop, EGAKFPIKWTAPEAINFGCFTIK

C=CC(=O)Nc1cc(Nc2nccc(-c3cn(C)c4ccccc34)n2)c(OC)cc1N(C)CCN(C)C [Osimertinib, osimertinib, reference compound]
Inhibition (NDR1, NDR2): -22.1%
Inhibition (TNK1): 58.2%
Inhibition (p38b): 7.2%
Inhibition (ULK1): -9.0%
Inhibition (IRAK1): -50.3%
Inhibition (RSK2 domain2): -16.8%
Inhibition (NEK7): -12.2%
Inhibition (Erk2): 1.9%
Inhibition (CDK4): -1.3%
Inhibition (HRI): -4.0%
Inhibition (PEK): 7.8%
Inhibition (SRPK2): -2.3%
Inhibition (MST1): -24.9%
Inhibition (MELK): -15.3%
Inhibition (FYN, SRC, YES): 7.8%
Inhibition (Wee1): 6.4%
Inhibition (RIPK2): 51.7%
Inhibition (NDR1; Lys1, DTGHVYAMKILR): -7.9%
Inhibition (NDR1; Lys2, DIKPDNLLLDSK): 12.0%
Inhibition (HER3/ErbB3; [1]): -24.2%
Inhibition (HER3/ErbB3; Lys1, GVWIPEGESIKIPVCIKVIEDK): -64.6%
Inhibition (LYN; [2]): 7.2%
Inhibition (LYN; Lys1, VAVKTLKPGTMSVQAFLEEANLMK): -3.5%
Inhibition (MER, TYRO3): 33.0%
Inhibition (MAP2K6; Lys1, HVPSGQIMAVKR): 6.1%
Inhibition (MAP2K6; Lys2, DVKPSNVLINALGQVK): -10.0%
Inhibition (EphA1): 5.8%
Inhibition (CaMK2g): -34.8%
Inhibition (IKKe, TBK1): -9.4%
Inhibition (GSK3B): -0.3%
Inhibition (MAP3K1): 8.4%
Inhibition (MAP2K1, MAP2K2; Lys1, KLIHLEIKPAIR): -64.7%
Inhibition (MAP2K1, MAP2K2; Lys2, DVKPSNILVNSR): -10.5%
Inhibition (SIK): 48.0%
Inhibition (LATS1; Lys1, ALYATKTLR): -8.1%
Inhibition (LATS1; Lys2, DIKPDNILIDR): 5.0%
Inhibition (RON): 8.9%
Inhibition (MAPKAPK2, MAPKAPK3): -28.4%
Inhibition (FRAP): -39.1%

C=CC(=O)Nc1cc(C(=O)Nc2nc3cccc(C)c3n2[C@@H]2CCCCN(C(=O)C=C)C2)cs1 [ZNL-0056]
Inhibition (NDR1, NDR2): -7.6%
Inhibition (TNK1): 8.0%
Inhibition (p38b): -8.8%
Inhibition (ULK1): 3.5%
Inhibition (IRAK1): 21.6%
Inhibition (RSK2 domain2): 4.0%
Inhibition (NEK7): -9.3%
Inhibition (Erk2): -24.2%
Inhibition (CDK4): -13.0%
Inhibition (HRI): 6.7%
Inhibition (PEK): -15.1%
Inhibition (SRPK2): 10.0%
Inhibition (MST1): -5.5%
Inhibition (MELK): 23.0%
Inhibition (FYN, SRC, YES): 1.6%
Inhibition (Wee1): 13.4%
Inhibition (RIPK2): -9.6%
Inhibition (NDR1; Lys1, DTGHVYAMKILR): 6.1%
Inhibition (NDR1; Lys2, DIKPDNLLLDSK): 5.7%
Inhibition (HER3/ErbB3; [1]): 25.6%
Inhibition (HER3/ErbB3; Lys1, GVWIPEGESIKIPVCIKVIEDK): -12.4%
Inhibition (LYN; [2]): -13.3%
Inhibition (LYN; Lys1, VAVKTLKPGTMSVQAFLEEANLMK): -8.7%
Inhibition (MER, TYRO3): 2.6%
Inhibition (MAP2K6; Lys1, HVPSGQIMAVKR): -13.1%
Inhibition (MAP2K6; Lys2, DVKPSNVLINALGQVK): -0.186%
Inhibition (EphA1): -5.3%
Inhibition (CaMK2g): -27.3%
Inhibition (IKKe, TBK1): 1.9%
Inhibition (GSK3B): -4.3%
Inhibition (MAP3K1): -17.1%
Inhibition (MAP2K1, MAP2K2; Lys1, KLIHLEIKPAIR): 9.8%
Inhibition (MAP2K1, MAP2K2; Lys2, DVKPSNILVNSR): -6.7%
Inhibition (SIK): 28.2%
Inhibition (LATS1; Lys1, ALYATKTLR): 3.8%
Inhibition (LATS1; Lys2, DIKPDNILIDR): 20.9%
Inhibition (RON): -9.0%
Inhibition (MAPKAPK2, MAPKAPK3): -7.9%
Inhibition (FRAP): -27.2%
